Laboratory results from patent publication US9739765B2, “Metal-based covalent viability reagent for single cell analysis” (The Board of Trustees of the Leland Stanford Junior …, priority 2013, dated 2017).

What was measured:
[1] = tested on: phosphorylation of SLP-76 (Y128) and SLP-65 in PBMCs; assay: Pervanadate stimulation of cisplatin-labeled PBMCs, pSLP-76/65 signaling; format: cell-based; settings: myeloid cells, T cells and B cells of PBMCs; 125 μM, 15 min
Method: Pervanadate stimulation of PBMCs. Frozen PBMCs were thawed at 37° C. and resuspended in RPMI-1640/10% FBS/2 mM EDTA. A fraction of the PBMCs (30%) was heat-killed separately and spiked back in, as described above. Cells were treated with cisplatin according to the standard protocol described above, at 10^6 cells/ml. Samples were then treated with activated sodium orthovanadate at a final concentration of 125 μM for 15 min at 37° C. Cells were fixed with 1.6% (final concentration) PFA for 10 min at room temperature.
Antibody staining. […]
(§1) Mass cytometry measurement. Cells were analyzed on a CyTOF® mass cytometer (DVS Sciences, Richmond Hill, Ontario, Canada). […] Cells were measured at approximately 500 cells per second, noise reduction was activated and cell extraction parameters were set to: Cell length, range was set from 10 to 65 pushes, and the lower convolution threshold was set to 10.
Cisplatin as a viability indicator for primary samples. […] Therefore to evaluate signaling in PBMCs, phosphorylation of SLP-76 (Y128) (T cells and myeloid cells) and SLP-65 (Y76) (B cells) was determined after a […] exposure to vanadate, a global tyrosine phosphatase inhibitor, shown to increase intracellular kinase activity and phosphotyrosine levels.

KG-1 cells = assay: Cisplatin viability labeling of partially heat-killed KG-1 cells, mass cytometry; format: cell-based, human; settings: KG-1 cells spiked with approximately 30% heat-killed cells; 1 min cisplatin at 10, 50, or 250 μM (all doses)
Method: Generation of non-viable control cells. To generate samples with known amounts of non-viable cells, an aliquot of cultured cells was heat-killed at 55° C. for 1 hour, cooled to 37° C. and then spiked into each culture of viable cells at known percentages based on Trypan blue exclusion staining. Samples were then prepared for fluorescence and mass cytometry and the live/dead ratio of cells determined by each technology.
Cisplatin exposure. Cisplatin (WR International, Radnor, Pa., Cat #89150-634) was stored at −80° C. as a stock solution of 100 mM in DMSO (Hybrimax, Sigma Aldrich, St Louis, Mo.). Working solutions (10 mM) were prepared fresh on the day of each experiment by diluting the stock solution into PBS at 4° C. […]
as §1
Comparison between fluorescence and mass cytometry protocols. […] In the first experiment a suspension of human myeloid KG-1 cells spiked with approximately 30% of heat-killed KG-1 cells (determined by Trypan blue extrusion), was tested with Aqua and cisplatin. […]

[2] = tested on: Jurkat, KG-1, HeLa, OVCAR3 cell lines; assay: Cisplatin viability labeling of suspension and adherent cell lines spiked with heat-killed cells, mass cytometry; format: cell-based
Method: Cell culture. The cancer cell lines Jurkat (T acute lymphoblastic leukemia suspension cells) and OVCAR-3 (ovarian carcinoma adherent cells) were cultured in RPMI-1640 (GIBCO, Invitrogen, Carlsbad, Calif.) with 10% heat-inactivated fetal bovine serum (FBS), 2 mM L-glutamine and 100 U/ml penicillin. The suspension cell lines KG-1 (acute myeloid leukemia) and HL-60 (acute myeloid leukemia cells) were cultured in IMDM (GIBCO, Invitrogen, Carlsbad, Calif.) with 20% heat-inactivated FBS and 100 U/ml penicillin. The adherent cell line HeLa (cervical carcinoma) was cultured in DMEM (GIBCO, Invitrogen, Carlsbad, Calif.) with 10% heat-inactivated FBS and 100 U/ml penicillin. All cell lines were maintained at 37° C. in a humidified 5.0% CO2 environment. Peripheral blood from healthy donors was purchased from the Stanford Blood Bank according to an IRB-approved protocol. […] Samples were then prepared for fluorescence and mass cytometry and the live/dead ratio of cells determined by each technology. […] Cells were analyzed on a CyTOF® mass cytometer (DVS Sciences, Richmond Hill, Ontario, Canada). […] Cells were measured at approximately 500 cells per second, noise reduction was activated and cell extraction parameters were set to: Cell length, range was set from 10 to 65 pushes, and the lower convolution threshold was set to 10. […]

Compound	SLP-76/65 phosphorylation in response to pervanadate, cisplatin-high populations [1]	SLP-76/65 phosphorylation in response to pervanadate, cisplatin-low populations [1]	frequency of cisplatin positive (dead) cells (KG-1 cells)	signal-to-noise ratios separating live and dead cells ([2]; 1-minute pulse protocol, routinely observed (FIG. 2-5))	signal-to-noise ratios, cisplatin-high (dead) vs cisplatin-low (live) populations ([2]; each cisplatin concentration (10, 50, 250 μM), HeLa, OVCAR3, Jurkat, KG-1)
activated sodium orthovanadate [pervanadate]	no response	strong increase			
N.N.[Cl][Pt][Cl] [cisplatin, Cisplatin [Pt(NH3)2Cl]]			26-28%	greater than 10 fold	above 10
